Series [1] in a line: PK parameter test in SD rats. The format is in vivo, Sprague-Dawley rats. As to conditions: male SD rats; for Tmax / AUC / half-life: Sprague-Dawley, rat, plasma; for F: po 10 mg/kg vs iv 3 mg/kg. The procedure:
Test compounds were administered intravenously or intragastrically singly to SD rats.
Blood samples were collected at different time points. LC-MS/MS was used to determine the concentration of the test compounds in rat plasma after administration of tested compounds and calculate the relevant PK parameters.
The test compounds are calculated based on free radicals and are converted only by purity.
A suitable amount of the test compound was added 5% DMSO+95% HP-beta-CD (20%) to prepare a solution of 0.6 mg/mL for intravenous administration.
A suitable amount of the test compound was added 5% DMSO+95% HP-beta-CD (20%) to prepare a solution of 1 mg/mL for intragastrical administration.
Male Sprague-Dawley rats were purchased from Shanghai Xipuer-Bikai Laboratory Animal Co., Ltd. There were 3 rats in each group. One group was used as control to collect blank plasma. The other groups were given each test compound by intravenous injection (the dose was 3 mg/kg) or intragastrical administration (the dose was 10 mg/kg). Heparin sodium was used for anticoagulation. Analyze the concentration of the test compound in the blood sample.
Abrosia for 10-14 hours before oral administration of the test compounds and resume feeding 4 hours after oral administration of the test compounds.
The time points of blood sample collection were: intravenous injection: before administration and at 0.083 hour, 0.25 hour, 0.5 hour, 1 hour, 2 hour, 4 hour, 6 hour, 8 hour, 24 hour after administration; oral administration: before administration and at 0.25 hour, 0.5 hour, 1 hour, 2 hour, 4 hour, 6 hour, 8 hour, 24 hour after administration. Blood samples were collected through jugular vein puncture. About 0.25 mL blood was collected for each sample. Heparin sodium was used for anticoagulation and the samples were placed on ice after collection. Blood samples were placed on ice after collection, and plasma was separated by centrifugation (centrifugation condition: 8000 rpm, 6 min, 2-8° C.). The collected plasma was stored at −80° C. before analysis.
50 μL plasma sample was added into a 1.5 mL centrifugal tube, and 250 μL internal standard solution (the same volume of methanol was added to blank sample instead of internal standard) was added to the sample. The sample was mixed in a whirlpool and centrifuged for 5 minutes at 14000 rpm. The supernatant of 200 μL was added to 96-well plate for LC-MS/MS analysis.
The pharmacokinetic parameters of the test compounds were calculated using the non-compartment model of WinNonlin v5.2, a software for pharmacokinetic calculation, based on the data of plasma concentration.

The next series addresses T1, PDE4D3 (Homo sapiens, UniProt Q08499).
T1 construct: purchased BPS 60046
The series is described as follows: PDE4 activity inhibition assay, PDE4D3. As to conditions: FAM-cAMP substrate, 30 minutes at room temperature. Type of series: biochemical. The procedure:
(§1) The IC50 value of the inhibitory effect of the compound on PDE4A1A, PDE4B1 and PDE4D3 was tested.
(§2) Positive compound: Trequinsin (Sigma, Cat. No. T2057).
(§3) Equipment: Wallac Victor Multi-label counter (Perkin Elmer).
(§4) I. Preparing 1× reaction liquid and termination liquid;
(§5) II. PDE enzymatic reaction; • 1) The PDE was dissolved in 1× reaction solution to form 2× enzyme solution. • 2) FAM-cAMP was dissolved in 1× reaction solution to form 2× substrate solution. • 3) Echo 550 was used to transfer the corresponding volume of the compound in DMSO solution to the reaction plate. • 4) 2× enzyme solution was added into the corresponding well of the reaction plate and incubated with the compound solution at room temperature for 15 minutes. • 5) 2× substrate solution was added into the corresponding well of the reaction plate to initiate the reaction. • 6) Reaction plate was incubated at room temperature for 30 minutes and terminated by adding termination liquid, then incubated at room temperature for 60 minutes.
(§6) The inhibition rate was calculated by Excel; IC50 was calculated by GraphPad Prism.

For a further series, the target named is T2, PDE4A1A (Homo sapiens, UniProt P27815).
T2 construct: purchased BPS 60040
T2 sequence (P27815 1-647 isoform P27815-4): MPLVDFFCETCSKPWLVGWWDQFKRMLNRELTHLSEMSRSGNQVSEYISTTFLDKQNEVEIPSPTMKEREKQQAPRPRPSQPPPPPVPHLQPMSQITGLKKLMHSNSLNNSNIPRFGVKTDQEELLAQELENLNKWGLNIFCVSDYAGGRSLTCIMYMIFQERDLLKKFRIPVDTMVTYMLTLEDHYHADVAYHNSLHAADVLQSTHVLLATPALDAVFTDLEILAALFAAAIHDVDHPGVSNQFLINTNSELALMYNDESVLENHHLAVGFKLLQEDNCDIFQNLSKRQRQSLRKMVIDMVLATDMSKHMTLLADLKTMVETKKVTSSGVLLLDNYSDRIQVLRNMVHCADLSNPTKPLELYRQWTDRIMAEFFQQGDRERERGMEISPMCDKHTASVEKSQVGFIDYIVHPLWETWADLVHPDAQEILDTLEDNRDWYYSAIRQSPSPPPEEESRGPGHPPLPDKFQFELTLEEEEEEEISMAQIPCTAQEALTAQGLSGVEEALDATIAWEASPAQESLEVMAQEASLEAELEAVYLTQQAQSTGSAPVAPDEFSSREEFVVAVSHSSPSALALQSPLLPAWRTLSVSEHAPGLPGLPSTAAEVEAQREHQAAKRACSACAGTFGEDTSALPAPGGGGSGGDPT
The series is described as follows: PDE4 activity inhibition assay, PDE4A1A. Type of series: biochemical. As to conditions: FAM-cAMP substrate, 30 minutes at room temperature. The procedure: as §1, §2, §3, §4, §5, §6

In the next series the target is T3, PDE4B1 (Homo sapiens, UniProt Q07343).
T3 construct: purchased BPS 60041
T3 sequence (Q07343 whole entry): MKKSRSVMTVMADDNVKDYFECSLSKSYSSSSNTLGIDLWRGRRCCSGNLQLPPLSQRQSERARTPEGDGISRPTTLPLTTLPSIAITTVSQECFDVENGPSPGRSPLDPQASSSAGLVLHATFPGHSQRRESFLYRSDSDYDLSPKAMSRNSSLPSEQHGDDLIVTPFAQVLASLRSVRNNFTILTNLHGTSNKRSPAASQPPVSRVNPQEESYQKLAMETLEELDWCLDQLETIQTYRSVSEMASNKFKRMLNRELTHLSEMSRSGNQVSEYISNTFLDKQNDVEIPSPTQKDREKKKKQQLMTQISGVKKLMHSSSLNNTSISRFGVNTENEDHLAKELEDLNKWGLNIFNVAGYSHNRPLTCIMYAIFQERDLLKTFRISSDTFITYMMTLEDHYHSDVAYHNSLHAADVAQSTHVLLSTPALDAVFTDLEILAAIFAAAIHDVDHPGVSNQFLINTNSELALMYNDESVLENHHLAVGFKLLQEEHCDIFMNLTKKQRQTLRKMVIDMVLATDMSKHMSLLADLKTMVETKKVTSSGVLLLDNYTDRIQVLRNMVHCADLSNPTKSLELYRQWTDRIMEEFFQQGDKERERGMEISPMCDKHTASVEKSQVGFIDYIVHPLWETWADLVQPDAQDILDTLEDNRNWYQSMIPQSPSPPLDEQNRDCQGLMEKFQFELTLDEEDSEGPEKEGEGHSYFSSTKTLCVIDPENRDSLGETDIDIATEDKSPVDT
The series is described as follows: PDE4 activity inhibition assay, PDE4B1. As to conditions: FAM-cAMP substrate, 30 minutes at room temperature. Type of series: biochemical. The procedure: as §1, §2, §3, §4, §5, §6

Where [2] appears, read: po, intragastrical administration 10 mg/kg.
The mark [3] stands for this setting: po, intragastrical administration 10 mg/kg, read-out: AUC(po).
Setting [4] is: po, intragastrical administration 10 mg/kg, read-out: T1/2(po) (converted).
Where [5] appears, read: intravenous injection 3 mg/kg, read-out: AUC(iv).
The mark [6] stands for this setting: intravenous injection 3 mg/kg, read-out: T1/2 (IV) (converted).

The text below walks through data of US11337964B2, “Isoindoline derivative, pharmaceutical composition and use thereof” (Kangpu Biopharmaceuticals, Ltd., priority 2017, dated 2022).

Read-outs that look alike come from different tables or passages of the source.

T1 sequence (Q08499 1-673 isoform Q08499-2): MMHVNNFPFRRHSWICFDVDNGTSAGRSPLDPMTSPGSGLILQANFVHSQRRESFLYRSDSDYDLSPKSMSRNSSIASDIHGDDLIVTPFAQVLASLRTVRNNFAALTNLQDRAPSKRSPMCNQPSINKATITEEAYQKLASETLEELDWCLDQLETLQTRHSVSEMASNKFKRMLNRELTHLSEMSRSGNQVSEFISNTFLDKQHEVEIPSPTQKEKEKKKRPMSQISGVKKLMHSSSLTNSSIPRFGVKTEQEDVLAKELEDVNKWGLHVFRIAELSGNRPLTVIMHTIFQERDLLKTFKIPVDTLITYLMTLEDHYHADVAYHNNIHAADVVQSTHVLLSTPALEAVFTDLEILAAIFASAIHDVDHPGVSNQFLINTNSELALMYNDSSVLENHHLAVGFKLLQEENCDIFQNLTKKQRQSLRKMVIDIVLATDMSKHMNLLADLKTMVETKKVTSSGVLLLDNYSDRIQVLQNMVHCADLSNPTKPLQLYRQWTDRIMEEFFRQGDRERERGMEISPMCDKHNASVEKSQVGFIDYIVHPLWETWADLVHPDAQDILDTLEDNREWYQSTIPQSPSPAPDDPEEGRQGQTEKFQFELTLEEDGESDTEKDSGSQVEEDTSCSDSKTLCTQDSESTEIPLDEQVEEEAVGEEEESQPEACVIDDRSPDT

For the molecule `[2H]C([2H])([2H])Oc1ccc([C@@H](CS(C)(=O)=O)N2C(=O)c3c(F)ccc(NC(C)=O)c3C2=O)cc1OCC` [Compound 103, (S)—N-(2-(1-(3-ethoxy-4-d3-methoxyphenyl)-2-(methylsulfonyl)ethyl)-7-fluoro-1,3-dioxoisoindolin-4-yl)acetamide], in series [1] (setting [2]), the Tmax was determined as 120 min. Also, the values for the AUC in series [1] (setting [3]) and in series [1] (setting [5]) were 4120 ng·h/mL and 1260 ng·h/mL, respectively. The results for the half-life in series [1] (setting [4]) and in series [1] (setting [6]) were 230 min and 63 min, respectively. The F in series [1] amounted to 98.2. Also, the results for the IC50 against PDE4D3, against PDE4A1A and against PDE4B1 were 3.7 nM, 7.25 nM and 12.8 nM, respectively.
`[2H]C([2H])([2H])Oc1ccc([C@@H](CS(C)(=O)=O)N2C(=O)c3cc(F)cc(NC(C)=O)c3C2=O)cc1OCC` [Compound 203, (S)—N-(2-(l-(3-ethoxy-4-d3-methoxyphenyl)-2-(methylsulfonyl)ethyl)-6-fluoro-1,3-dioxoisoindolin-4-yl)acetamide]: the Tmax in series [1] (setting [2]) came out at 30 min. For the same molecule, the AUC in series [1] (setting [3]) was determined as 250 ng·h/mL; in series [1] (setting [5]), 1010 ng·h/mL. Further, the values for the half-life in series [1] (setting [4]) and in series [1] (setting [6]) were 52.2 min and 57 min, respectively. The F in series [1] amounted to 7.4. In addition, the IC50 came to 18 nM at PDE4D3, 22 nM at PDE4A1A and 31 nM on PDE4B1.
Regarding `CCOc1nc(C(CS(C)(=O)=O)N2C(=O)c3c(F)ccc(NC(=O)COC)c3C2=O)ccc1OC` (stereo not drawn) [Compound 745, N-(2-(1-(6-ethoxy-5-methoxypyridin-2-yl)-2-(methylsulfonyl)ethyl)-7-fluoro-1,3-dioxoisoindolin-4-yl)-2-methoxyacetamide], the IC50 against PDE4D3 is 1.2 nM; on PDE4A1A, 1.1 nM; against PDE4B1, 2.6 nM.
For `CCOc1nc(C(CS(C)(=O)=O)N2C(=O)c3cccc(NC(=O)COC)c3C2=O)ccc1OC` (stereo not drawn) [Compound 748, N-(2-(1-(6-ethoxy-5-methoxypyridin-2-yl)-2-(methylsulfonyl)ethyl)-1,3-dioxoisoindolin-4-yl)-2-methoxyacetamide] the same measures were 3.3 nM, 2.8 nM and 7.9 nM.
On to `CCOc1nc(C(CS(C)(=O)=O)N2C(=O)c3c(F)ccc(NC(=O)CN(C)C)c3C2=O)ccc1OC` (stereo not drawn) [Compound 751, 2-(dimethylamino)-N-(2-(1-(6-ethoxy-5-methoxypyridin-2-yl)-2-(methylsulfonyl)ethyl)-7-fluoro-1,3-dioxoisoindolin-4-yl)acetamide], for which the IC50 against PDE4D3 is 3.1 nM; against PDE4A1A it was 5 nM; against PDE4B1, 9.9 nM.
For `CCOc1nc(C(CS(C)(=O)=O)N2C(=O)c3cccc(NC(=O)CN(C)C)c3C2=O)ccc1OC` (stereo not drawn) [Compound 754, 2-(dimethylamino)-N-(2-(1-(6-ethoxy-5-methoxypyridin-2-yl)-2-(methylsulfonyl)ethyl)-1,3-dioxoisoindolin-4-yl)acetamide], in that order: 8 nM, 10.6 nM and 21.9 nM.
For `CCOc1nc(C(CS(C)(=O)=O)N2C(=O)c3c(F)ccc(NC(=O)CC(C)C)c3C2=O)ccc1OC` (stereo not drawn) [Compound 757, N-(2-(1-(6-ethoxy-5-methoxypyridin-2-yl)-2-(methylsulfonyl)ethyl)-7-fluoro-1,3-dioxoisoindolin-4-yl)-3-methylbutanamide] the same measures were 1.8 nM, 2.5 nM and 4.5 nM.
For `CCOc1nc(C(CS(C)(=O)=O)N2C(=O)c3cccc(NC(=O)CC(C)C)c3C2=O)ccc1OC` (stereo not drawn) [Compound 760, N-(2-(1-(6-ethoxy-5-methoxypyridin-2-yl)-2-(methylsulfonyl)ethyl)-1,3-dioxoisoindolin-4-yl)-3-methylbutanamide], in that order: 1.3 nM, 3.1 nM and 4.7 nM.
For `CCOc1nc([C@@H](CS(C)(=O)=O)N2C(=O)c3c(F)ccc(NC(=O)C4CC4)c3C2=O)ccc1OC` [Compound 764, (S)—N-(2-(1-(6-ethoxy-5-methoxypyridin-2-yl)-2-(methylsulfonyl)ethyl)-7-fluoro-1,3-dioxoisoindolin-4-yl)cyclopropanecarboxamide], the results for the IC50 at PDE4D3, at PDE4A1A and against PDE4B1 were 1 nM, 1.6 nM and 1.9 nM, respectively.
For the molecule `[2H]C([2H])([2H])Oc1ccc([C@@H](CS(C)(=O)=O)N2C(=O)c3c(F)ccc(NC(=O)C4CC4)c3C2=O)nc1OCC` [Compound 767, (S)—N-(2-(1-(6-ethoxy-5-d3-methoxypyridin-2-yl)-2-(methylsulfonyl)ethyl)-7-fluoro-1,3-dioxoisoindolin-4-yl)cyclopropanecarboxamide], the IC50 turned out to be 1 nM against PDE4D3, 1.3 nM at PDE4A1A and 2.2 nM at PDE4B1.
For `CCOc1nc([C@@H](CS(C)(=O)=O)N2C(=O)c3cccc(NC(=O)C4CC4)c3C2=O)ccc1OC` [Compound 770, (S)—N-(2-(1-(6-ethoxy-5-methoxypyridin-2-yl)-2-(methylsulfonyl)ethyl)-1,3-dioxoisoindolin-4-yl)cyclopropanecarboxamide] the same measures were 1.5 nM, 1.6 nM and 1.8 nM.
For `[2H]C([2H])([2H])Oc1ccc([C@@H](CS(C)(=O)=O)N2C(=O)c3cccc(NC(=O)C4CC4)c3C2=O)nc1OCC` [Compound 773, (S)—N-(2-(1-(6-ethoxy-5-d3-methoxypyridin-2-yl)-2-(methylsulfonyl)ethyl)-1,3-dioxoisoindolin-4-yl)cyclopropanecarboxamide] the same measures were 1.2 nM, 1.7 nM and 1.7 nM.
In the case of `CCOc1cc(C(CS(C)(=O)=O)N2C(=O)c3cccc(NC(C)=O)c3C2=O)cnc1OC` (stereo not drawn) [Compound 801, N-(2-(1-(5-ethoxy-6-methoxypyridin-3-yl)-2-(methylsulfonyl)ethyl)-1,3-dioxoisoindolin-4-yl)acetamide], the values for the IC50 on PDE4D3, against PDE4A1A and on PDE4B1 were 202 nM, 295 nM and 364 nM, respectively.
For `CCOc1cc(C(CS(C)(=O)=O)N2C(=O)c3cccc(NC(C)=O)c3C2=O)ncc1OC` (stereo not drawn) [Compound 901, N-(2-(1-(4-ethoxy-5-methoxypyridin-2-yl)-2-(methylsulfonyl)ethyl)-1,3-dioxoisoindolin-4-yl)acetamide], in that order: 248 nM, 411 nM and 484 nM.
In the case of `CCOc1cc([C@@H](CS(C)(=O)=O)N2C(=O)c3cccc(NC(C)=O)c3C2=O)ccc1OC` [Reference compound 2, reference compound], the Tmax in series [1] (setting [2]) was determined as 60 min. In addition, the AUC was 785 ng·h/mL in series [1] (setting [3]) and 1050 ng·h/mL in series [1] (setting [5]). Moreover, the half-life is 56.4 min in series [1] (setting [4]) and 28.2 min in series [1] (setting [6]). This molecule also came in with a F in series [1] of 22.5.

The term Tmax denotes the time at which the peak concentration occurs. As a reminder, the AUC is the area under the concentration-time curve, a measure of exposure. As a reminder, the IC50 is the concentration at which inhibition is half-maximal. A high value points to weaker potency in that assay.
